This is an account of results in publication PMC5000617, “Antiproliferative and Pro-Apoptotic Effect of Novel Nitro-Substituted Hydroxynaphthanilides on Human Cancer Cell Lines” (International Journal of Molecular Sciences, 2016).

SMILES strings stand for the structures.

In data set [1] the test system is THP-1 cells. Description: Annexin V-FITC/PI apoptosis assay by flow cytometry, THP-1. Format: cell-based, human. The settings on record: mean. The procedure:
(§1) Staining of cells by Annexin V-FITC conjugate reflects the externalization of phosphatidylserine on the outer surface of the cell membrane as one of the early indicators of apoptosis.
(§2) Early and late stages of apoptosis were detected using Annexin V-FITC Kit—Apoptosis Detection Kit faccording to the manufacturer´s instructions. […] At each time-point of incubation (12, 18, and 24 h) the cells were washed with ice-cold PBS prior to being resuspended at a concentration of 5 × 10^6 cells/mL in a total volume of 100 μL of 1× binding buffer. Annexin V-FITC solution (final concentration 0.25 μg/mL) and PI (final concentration 12.5 μg/mL) were added to each sample; the cell suspension was kept on ice and incubated for 15 min in the dark. After that, the analysis was carried out by flow cytometry. The data were evaluated using Kaluza Flow Cytometry Analysis 1.2. Per sample, a total number of 2 × 10^4 cells were analysed.
Background: Flow cytometry measures light scatter and fluorescence of single cells or particles in a stream.

Assay in data set [2]: as above
The class given is cell-based, human. Conditions: human, THP-1 cells, THP-1, 5 μM, representative dot plot, read-out: quadrant I: viable cells. The procedure: as §1, §2

The nature of data set [3]: Erythrosin B dye exclusion viability test, MCF-7. Format: cell-based. The settings on record: human, MCF-7 cells; erythrosin B exclusion test, 24 h, mean ± SD; read-out: MCF-7 LC50. The procedure: (§3) Subsequently, for the comparison of the antiproliferative and cytotoxic effects we assessed the cell viability after 24 h treatment with compounds 1–6 in both tumour cell lines using the dye exclusion test.
(§4) THP-1 human monocytic leukemia cell line, MCF-7 human breast adenocarcinoma cells and 3T3-L1 mouse embryonic fibroblast were purchased from the European Collection of Cell Cultures (ECACC, Salisbury, UK). Cells were routinely tested for the absence of mycoplasma (Hoechst 33258 staining method). THP-1 cells were maintained in RPMI 1640 culture medium containing 2 mM L-glutamine; MCF-7 and 3T3-L1 cells were cultured in DMEM medium. All of the culture media were supplemented with 10% heat-inactivated FBS and antibiotics (100 U/mL penicillin and 100 μg/mL streptomycin). Cells were maintained at 37 °C in a humidified atmosphere containing 5% CO2.
(§5) Cell proliferation was evaluated using Cell Proliferation Reagent WST-1 (2-(4-iodophenyl)-3-(4-nitrophenyl)-5-(2,4-disulfophenyl)-2H-tetrazolium) (Roche Diagnostics, Mannheim, Germany) according to the manufacturer´s instructions. THP-1 (5 × 10^4 cells/100 μL culture medium per well), MCF-7 cells (1 × 10^4 cells/100 μL per well), and 3T3-L1 (2.5 × 10^3 cells/100 μL per well) were cultured in 96-well plates in triplicate. The measurement was performed using Synergy 2 Multi-Mode Microplate Reader (BioTek, Winooski, VT, USA) after 24 h incubation of cells with tested compounds dissolved in DMSO and subsequently in RPMI 1640 to final concentration ranging 0.5–20 μM in the assays. Cell viability was assessed by dye exclusion test. THP-1 (2 × 10^5 cells/mL per well) and MCF-7 cells (8 × 10^4 cells/mL per well) were incubated in 24-well plates with the indicated concentrations of compounds for 24 h. The number of viable cells was determined using hemocytometer after their staining with a solution of erythrosin B (0.1% erythrosin B (w/v) in PBS). The assays were conducted in triplicate. The IC50 and LC50 values were calculated from fitted concentration-response curves using GraphPad Prism 5.00 software (GraphPad Software, San Diego, CA, USA).

Data set [4] in a line: Erythrosin B dye exclusion viability test, THP-1. Format: cell-based. Conditions: human, THP-1 cells; erythrosin B exclusion test, 24 h, mean ± SD; read-out: THP-1 LC50. How it is done: as §3, §4, §5
For data set [5], the system named is THP-1 cells. Description: WST-1 cell proliferation assay, THP-1. Format: cell-based, human. The settings on record: for IC50: Homo sapiens, THP-1, WST-1, 24 h, 0.5-20 μM, mean ± SD; for effect on cell proliferation: THP-1, 0.5-20 μM, 24 h. The procedure:
(§6) Initially, we examined the effect of six nitro-substituted hydroxynaphthanilides on the proliferation of human leukaemia and breast carcinoma cell lines, using Water Soluble Tetrazolium Salts-1 (WST-1) assay. For such analyses, THP-1 and MCF-7 cells were treated with the compounds at concentrations ranging from 0.5 to 20 μM for 24 h. […] The inhibitory effect of 2 and 6 was statistically significant (p < 0.001) starting from the concentration of 2.5 and 5 μM in THP-1 and MCF-7 cells, respectively. From the concentration-response curves, the IC50 values were determined.
as §4, §5
Background: Formazan colour is commonly taken as a measure of viable cells.

The subject of data set [6] is MCF-7 cells. As to the kind of experiment: WST-1 cell proliferation assay, MCF-7. The class given is cell-based, human. The settings on record: for IC50: Homo sapiens, MCF7, WST-1, 24 h, 0.5-20 μM, mean ± SD; for effect on cell proliferation: MCF-7, 0.5-20 μM, 24 h. The procedure:
as §6, §4, §5

Data set [7] relates to 3T3-L1 cells. As to the kind of experiment: WST-1 cell proliferation assay, 3T3-L1 non-tumour cells. The class given is cell-based, mouse. The settings on record: for IC50: Mus musculus, 3T3-L1, WST-1, 24 h, non-tumour cells, mean ± SD. The procedure: as §4, §5
Data set [8] deals with MCF-7 cells. As to the kind of experiment: Erythrosin B dye exclusion viability test, MCF-7. The class given is cell-based. The settings on record: MCF-7 cells. How it is done: as §3, §4, §5
Data set [9] relates to THP-1 cells. As to the kind of experiment: Erythrosin B dye exclusion viability test, THP-1. The class given is cell-based. How it is done: as §3, §4, §5

With `CC[C@@]1(O)C(=O)OCc2c1cc1n(c2=O)Cc2cc3ccccc3nc2-1` [camptothecin, reference compound], in [1] (THP-1, 5 µM, 12 h), the early apoptotic cells is given as 21.28% and the late apoptotic cells came out at 24.10%. In data set [1] (THP-1, 5 µM, 24 h), the early apoptotic cells was determined as 9.65% and the late apoptotic cells worked out at 33.08%. In data set [2] (12 h), the viability at 12 h, 5 µM stood at 55.8%. Also, the viability at 18 h, 5 µM in [2] (18 h) turned out to be 53.8%. The viability at 24 h, 5 µM in data set [2] (24 h) came out at 50.9%.
In general, IC50 refers to the concentration that gives 50% inhibition. With `O=C(Nc1cccc([N+](=O)[O-])c1)c1c(O)ccc2ccccc12` [Compound 5], the CC50 at 24 h in data set [3] and in data set [4] was greater than 20 µM in each case. Also, the IC50 in data set [5], in data set [6] and in data set [7] was greater than 20 µM each time. Further, the “effect on cell proliferation” value is listed as “proliferation of THP-1 cells was not affected” in [5] and “a 50% reduction in cell growth was not achieved” in data set [6].
`O=C(Nc1ccc([N+](=O)[O-])cc1)c1cc2ccccc2cc1O` [Compound 3]: the “LC50 in comparison with IC50” value in data set [8] is “approximately seven-fold”. Further, the CC50 at 24 h worked out at 12.9 ± 1.98 µM in data set [3] and 3.44 ± 1.21 µM in [4]. For the same molecule, in data set [9], the “LC50 compared to IC50” value is 2–3 fold. For the same molecule, the IC50 came out at 1.05 ± 0.199 µM in [5], 1.65 ± 0.938 µM in data set [6] and 4.41 ± 0.293 µM in [7]. The “effect on cell proliferation” value in data set [5] is recorded as “inhibit cell growth in both cell lines in a dose-dependent manner”; in data set [6], “inhibit cell growth in both cell lines in a dose-dependent manner”; in data set [7] (3T3-L1, 24 h), “affected the proliferation of 3T3-L1 cells in a dose-dependent manner”.
As for `O=C(Nc1ccccc1[N+](=O)[O-])c1cc2ccccc2cc1O` [Compound 1], the CC50 at 24 h in [3] and in data set [4] was greater than 20 µM throughout. In addition, the IC50 in data set [5], in [6] and in data set [7] was greater than 20 µM each time. Further, the “effect on cell proliferation” value in data set [5] and in [6] was “neither compound 1 nor 4 (both ortho-substituted derivatives) was able to induce the inhibition of cell growth” in each case.
With `N.N.[Cl][Pt][Cl]` [cisplatin, reference compound], the early apoptotic cells in data set [1] (THP-1, 10 µg/mL, 24 h) is 44.38%.
Consider `O=C(Nc1ccccc1[N+](=O)[O-])c1c(O)ccc2ccccc12` [Compound 4], for which the CC50 at 24 h in data set [3] and in data set [4] was greater than 20 µM in each case. Moreover, the IC50 in data set [5], in data set [6] and in [7] was greater than 20 µM in each case. The “effect on cell proliferation” value in data set [5] and in [6] was “neither compound 1 nor 4 (both ortho-substituted derivatives) was able to induce the inhibition of cell growth” each time.
